Measured values from patent US12195424B2, “Antibiotic compounds” (The General Hospital Corporation, priority 2017, dated 2025).

How the values were obtained:
[1] = Cytotoxicity (WST-1) in a panel of human cell lines; assay type: cell-based; conditions: panel of human cell lines, serum-free media, 24 h; read-out: LC50
Protocol: (§1) Cytotoxicity. Cryopreserved rat and human primary hepatocytes were purchased from the Cell Resource Core at Massachusetts General Hospital (Boston, MA, USA). The hepatocytes were cultured in a collagen sandwiched configuration in 24-well plates, as described previously. Briefly, 4×10^5 live cells were seeded in 24-well plates coated with rat tail collagen type I. Plates were incubated in a humidified 5% CO2 incubator at 37° C. for 4 h to allow cells to attach to the collagen gel. […] The cell cultures were incubated in a humidified 5% CO2 incubator at 37° C.
(§2) For cytotoxicity tests, HepG2, RPTEC, and NHEK were cultured at 70-80% confluence in tissue culture treated 96-well plates in a volume of 100 μl/well corresponding culture media. To test cytotoxicity in the absence of serum, all cells were washed twice with PBS and then once with the serum-free corresponding culture media. […] WST-1 reduction was measured at 450 nm. The percent fluorescence relative to that of the no-treatment control was calculated. The assay was done in triplicate.

[2] = test system: panel of human cell lines; test: as above; assay type: cell-based; conditions: compared with CD437, in words
Protocol: as §1, §2

Maximum tolerated dose = assay type: in vivo; conditions: mice
Protocol: Maximum tolerated dose. Six-week-old female CD1 ICR outbred mice (20-25 g) were obtained from Charles River Laboratories (Wilmington, MA, USA). Analog 2 was dissolved in a 1:1 solution of Kolliphor EL (Sigma-Aldrich, St Louis, MO, USA) and ethanol and then diluted 1:10 in saline to a final concentration of 4 mg/ml. Groups of mice (n=6) were treated with 10, 20, 40, 80 mg/kg Analog 2 i.p. or vancomycin (25 mg/kg) every 12 h for 3 days. Control mice were injected with 400 μl of 10% Kolliphor EL/ethanol in saline i.p. every 12 h for 3 days. Mice were closely monitored until they were euthanized at 72 h from the first infection. After euthanizing mice, blood was collected by cardiac puncture. All samples were stored at 4° C. until for analysis. Serum was analyzed for alanine aminotransferase and urea nitrogen content with commercially available kits, following the manufacturer's protocol (Pointe Scientific, Canton, MI, USA). No statistical methods were used to predetermine samples size. The experiments were not randomized, and investigators were not blinded to allocation during experiments and outcome assessment. This study and all experimental protocols were approved by the Rhode Island Hospital Institutional Animal Care and Use Committee (RIH IACUC) and conducted in accordance with the Animal Welfare Act and National Institutes of Health guidelines for animal care and use. Statistical significance among each group was analyzed by one-way ANOVA with post-hoc Tukey test using PASW Statistics 18 (SPSS Inc. Chicago, IL, USA) and GraphPad Prism 7 (GraphPad Software, La Jolla, CA, USA).

S. aureus MW2 = test: Deep-seated mouse thigh infection model; assay type: in vivo, mice; conditions: every 12 h for 3 days, p<0.001
Protocol: Deep-seated mouse thigh infection model for evaluating drug efficacy. A previously described protocol to mimic a chronic, deep-tissue infection was used with modifications. Six-week-old female CD1 ICR outbred mice (20-25 g) were obtained from Charles River Laboratories (Wilmington, MA, USA). To make mice neutropenic, 150 mg/kg and 100 mg/kg of cyclophosphamide were administered via i.p. injection at 4 days and 1 day before infection, respectively. On the day of infection, ˜10^5 cells of stationary-phase S. aureus MW2 suspended in 50 μl of saline were injected to the right thigh of each mouse. To test the efficacy of CD437, the compound was dissolved in a 1:1 solution of Kolliphor EL (Sigma-Aldrich, St Louis, MO, USA) and ethanol and then diluted 1:10 in saline to a final concentration of […]. […] At 24 h post-infection, groups of mice (n=10) were treated with 30 mg/kg gentamicin subcutaneously (s.c.), 25 mg/kg vancomycin i.p., 20 mg/kg CD437 i.p., or a combination of 20 mg/kg CD437 i.p. and 30 mg/kg gentamicin s.c. every 12 h for 3 days. Control mice were injected with 200 μl of 10% Kolliphor EL/ethanol in saline i.p. every 12 h for 3 days. For testing the efficacy of Analog 2, the compound was dissolved in a 1:1 solution of Kolliphor EL (Sigma-Aldrich, St Louis, MO, USA) and ethanol and then diluted 1:10 in saline to a final concentration of 4 mg/ml. […] Serum was analyzed for alanine aminotransferase and urea nitrogen content with commercially available kits, following the manufacturer's protocol (Pointe Scientific, Canton, MI, USA). […] The bacterial burden was recorded as CFU/g tissue. A sample size of 10 mice per group was calculated for a single-tailed power analysis using a standard deviation based on our historical data and the literature in consultation with the Rhode Island Hospital Biostatistics Core. […] Statistical significance among each group was analyzed by one-way ANOVA with post-hoc Tukey test using PASW Statistics 18 (SPSS Inc. Chicago, IL, USA) and GraphPad Prism 7 (GraphPad Software, La Jolla, CA, USA).

[3] = every 12 h for 3 days, Analog 2 10-80 mg/kg i.p., vancomycin 25 mg/kg i.p., P>0.7

## OCc1ccc2cc(-c3ccc(O)c(C45CC6CC(CC(C6)C4)C5)c3)ccc2c1 [Analog 2, 2-(adamantan-1-yl)-4-(6-(hydroxymethyl)naphthalen-2-yl)phenol]
[1]
  CC50 at 24 h: ≥ 31 mg/L
[2]
  cytotoxicity: significantly reduced
Maximum tolerated dose; [3]
  alanine aminotransferase (ALT) vs. control: lack of significant differences
  blood urea nitrogen (BUN) vs. control: lack of significant differences
Maximum tolerated dose; up to 80 mg/kg i.p. (highest tested dose) every 12 h for 3 days
  hepatic or renal toxicity: no detectable
S. aureus MW2; 40 mg/kg i.p. in combination with 30 mg/kg gentamicin s.c.
  decrease in bacterial burden: ~1 log
S. aureus MW2; 80 mg/kg i.p. alone
  decrease in bacterial burden: ~1 log
S. aureus MW2; 80 mg/kg i.p. in combination with 30 mg/kg gentamicin s.c.
  decrease in bacterial burden: ~2 log
